For one data set, the system named is Ba/F3-KRAS-G12S. Nature of the data set: Ba/F3 KRAS-mutant cell proliferation inhibition (CellCounting-Lite 2.0). The class given is cell-based. Conditions: Mus musculus, BaF3, Ba/F3-KRAS-G12S (KC-2894), 72 h. The source says:
(§1) This experiment evaluated the proliferation inhibitory activity of the compounds of the present invention against Ba/F3-KRAS mutant cell lines by using the CellCounting-Lite®2.0 method.
(§2) The following materials, reagents, and instruments were used in this experiment: Cells were all obtained from Kangyuan Bochuang Biotechnology (Beijing) Co., Ltd. RPMI-1640 (Hyclone, SH30809.01); fetal bovine serum (FBS) was used. (GIBCO, 10099-141); Phosphate-buffered saline (PBS) (Solarbio, P1020-500); CellCounting-Lite 2.0 Luminescent Cell Viability Assay (Vazyme, DD1101-02); 96-well plate (Absin, abs7016); Multifunctional microplate reader (BMG LABTECH, CLARIOstar® Plus); CO2 incubator (Thermo Scientific, Model 3100 Series).
(§3) All cell lines were cultured in complete medium at 37°C and 5% CO2. Cells in the logarithmic growth phase were harvested and counted using a platelet counter. Cell viability was assessed using the trypan blue exclusion method to ensure a viability of over 90%. Cell density was adjusted using complete medium (RPMI 1640+10% FBS) and then seeded into 96-well cell culture plates at 90 µL per well, for a total of 3000 cells. The cells in the 96-well plates were cultured at 37°C and 5% CO2. A 10-fold drug solution was prepared using complete medium, and then 10 µL of each serially diluted compound was transferred to the corresponding wells of the 96-well cell culture plate, with two replicates for each drug concentration. The cells in the drug-treated 96-well plates were cultured at 37°C and 5% CO2 for 72 h, followed by CellCounting-Lite 2.0 analysis.
(§4) The CellCounting-Lite 2.0 Luminescent Cell Viability Assay reagent was thawed and the cell plate was equilibrated to room temperature for 30 minutes. An equal volume of CellCounting-Lite 2.0 Luminescent Cell Viability Assay solution was added to each well and the plate was shaken on an orbital shaker for 5 minutes to lyse the cells. The cell plate was placed at room temperature for 20 minutes to stabilize the cryo-luminescence signal. The cryo-luminescence values were read and the data were collected.
(§5) Data was analyzed using GraphPad Prism 7.0 software. A nonlinear S-curve regression was used to fit the data to derive the dose-response curve, and the IC50 value was calculated from this curve. [formula]

The next data set relates to Ba/F3-KRAS-Q61H. Described as above. Format: cell-based. The following applies: Mus musculus, BaF3, Ba/F3-KRAS-Q61H (KC-2620), 72 h.
Source text: as §1, §2, §3, §4, §5

The next data set has as its system Ba/F3-KRAS-G12R. The data set is described as above. The class given is cell-based. Conditions: Mus musculus, BaF3, Ba/F3-KRAS-G12R (KC-2026), 72 h.
Source text: as §1, §2, §3, §4, §5

For data set [1], the system named is KRAS G12D mutant AGS cells. The experiment in a line: Proliferation inhibition of AGS cells, CellTiter-Glo assay. The class given is cell-based, human. The following applies: Homo sapiens, AGS, 72 h, 3 days, CTG; read-out: AGS IC50/nM. The method in brief: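 AGS cells at 1500 cells/well in F12K + 10% FBS were exposed for 3 days at 37°C to nine 3-fold dilutions from 10 µM top concentration, in duplicate. Viability read by CellTiter-Glo luminescence; IC50 (nM) from dose-response-inhibition fitting.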

Data set [2] concerns KRAS G12V mutant NCI-H727 cells. Nature of the data set: Proliferation inhibition of NCI-H727 cells, 3D CellTiter-Glo assay (Method B). Format: cell-based, human. Conditions: Homo sapiens, NCI-H727, 120 h, Method B; 3D culture with 0.65% methylcellulose, 5 days, CTG; read-out: NCI-H727 IC50/nM. In short, it runs like this: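 Cells grown in 3D medium (RPMI-1640, 10% FBS, 0.65% methylcellulose) overnight, then treated 5 days at 37 °C, 5% CO2 with 9 threefold dilutions from 10 µM top working concentration, duplicate wells. CellTiter-Glo luminescence read; IC50 (nM) fitted by dose-response-inhibition equation.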
(In general: ATP-based viability assays read luminescence as a measure of living cells.)

The nature of another data set: Pharmacokinetics in mice. The following applies: mouse, in vivo, po, 20 mg/kg.
The mark [3] stands for this setting: 0.05uM, read-out: Inhibition rate% @0.05uM.
[4] abbreviates: 1uM, read-out: Inhibition rate% @1uM.

Method for Pharmacokinetics in mice: Male CD-1 mice, aged 6-8 weeks, were purchased from Zhejiang Vital River Laboratory Animal Co., Ltd.
For the PO administration group, compounds were formulated in 0.5% Tween 80 and 99.5% (0.5%MC (400cp)) vehicle or 0.5%MC (400cp) vehicle to a final concentration of 1 mg/mL or 2 mg/mL for each compound. The drug formulation was administered to CD-1 mice via gavage at a dose of 10 mL/kg. Blood samples were collected from the submandibular vein or other suitable means at 15 min, 30 min, 1 h, 2 h, 4 h, 6 h, 8 h, and 24 h after administration. The blood samples were centrifuged at low temperature for 5 minutes, and the plasma was collected and stored at -80°C for analysis.
10 µL of plasma sample was taken, 200 µL of methanol containing an internal standard as a precipitant was added to precipitate plasma proteins, the compounds to be tested in the plasma was extracted, centrifuged at low temperature, and 10 µL of the supernatant was injected. The drug concentration in blood plasma was analyzed by LC-MS/MS. The pharmacokinetic parameters were calculated using Winnonlin based on the blood drug concentration data at different time points.

With `CCN1CC/C(=C\F)[C@](C)(COc2nc(N3Cc4c(COC)c(C(=O)N(C)C)nn4CC[C@@H]3C)c3cc(Cl)c(-c4c(F)ccc5sc(N)c(C#N)c45)c(F)c3n2)C1` (single isomer, unassigned) [Example 228A], the results for the inhibition at 0.05 µM with Ba/F3-KRAS-G12S (setting [3]), with Ba/F3-KRAS-Q61H (setting [3]) and with Ba/F3-KRAS-G12R (setting [3]) were 96.4%, 99.1% and 85.7%, respectively. Moreover, the inhibition at 1 µM with Ba/F3-KRAS-G12S (setting [4]) turned out to be 98.8%; with Ba/F3-KRAS-Q61H (setting [4]) it was 99.6%; in the data set with Ba/F3-KRAS-G12R (setting [4]) it was 97.6%. Further, the IC50 in data set [1] and in data set [2] was less than 1.5 nM throughout. The molecule also yielded an AUC(0-t) at 8 h in the data set “Pharmacokinetics in mice” of 4130 ng·h/mL.

As a reminder, the inhibition is the drop in the measured response relative to a control, in per cent. For orientation: AUC(0-t) means exposure summed from dosing to a finite time, without extrapolation to infinity. A high value points to more exposure.

These data come from patent publication EP4775577A1, “RAS INHIBITOR” (Tyligand Bioscience (Shanghai) Limited, priority 2023, dated 2025).
